In ChEMBL document CHEMBL5131502, “Improving the treatment of Parkinson's disease: Structure-based development of novel 5-HT2A receptor antagonists/inverse agonists” (Eur J Med Chem, 2022):
≈ marks a conversion by molar mass, not a printed value.

Key:
[1] = Dissociation constant, pKa of the compound; type: physicochemical
[2] = target: T1, Cytochrome P450 1A2 (Homo sapiens, UniProt P05177); assay: Inhibition of CYP1A2 (unknown origin); type: ADME
T1 sequence (P05177 whole entry): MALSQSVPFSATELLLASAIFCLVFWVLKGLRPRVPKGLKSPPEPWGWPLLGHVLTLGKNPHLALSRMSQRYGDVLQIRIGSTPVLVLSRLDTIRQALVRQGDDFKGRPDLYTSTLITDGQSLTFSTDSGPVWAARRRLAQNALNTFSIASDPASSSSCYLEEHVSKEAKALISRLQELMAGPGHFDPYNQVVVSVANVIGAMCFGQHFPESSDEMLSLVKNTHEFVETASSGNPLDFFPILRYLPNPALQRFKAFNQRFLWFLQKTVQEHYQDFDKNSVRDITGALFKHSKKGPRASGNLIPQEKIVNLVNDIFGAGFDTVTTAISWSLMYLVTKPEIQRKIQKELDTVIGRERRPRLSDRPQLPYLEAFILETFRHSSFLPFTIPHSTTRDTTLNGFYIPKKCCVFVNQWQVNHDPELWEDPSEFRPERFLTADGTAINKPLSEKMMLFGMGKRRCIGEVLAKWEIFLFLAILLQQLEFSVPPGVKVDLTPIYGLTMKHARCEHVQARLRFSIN

[3] = Genotoxicity in Salmonella typhimurium TA102 in presence of rat liver S9 fraction by Ames test; type: toxicity, subcellular; conditions: salmonella enterica subsp. enterica serovar typhimurium
[4] = Genotoxicity in Salmonella typhimurium TA98 in absence of rat liver S9 fraction by Ames test; type: toxicity; conditions: salmonella enterica subsp. enterica serovar typhimurium
[5] = target: T2, 5-hydroxytryptamine receptor 2A (Homo sapiens, UniProt P28223); assay: Inverse agonist activity at 5-HT2A receptor (unknown origin) expressed in mouse NIH3T3 cells using o-nitrophenyl-D-galacto pyranoside incubated for 120 hrs; type: functional, cell-based
T2 sequence (P28223 whole entry): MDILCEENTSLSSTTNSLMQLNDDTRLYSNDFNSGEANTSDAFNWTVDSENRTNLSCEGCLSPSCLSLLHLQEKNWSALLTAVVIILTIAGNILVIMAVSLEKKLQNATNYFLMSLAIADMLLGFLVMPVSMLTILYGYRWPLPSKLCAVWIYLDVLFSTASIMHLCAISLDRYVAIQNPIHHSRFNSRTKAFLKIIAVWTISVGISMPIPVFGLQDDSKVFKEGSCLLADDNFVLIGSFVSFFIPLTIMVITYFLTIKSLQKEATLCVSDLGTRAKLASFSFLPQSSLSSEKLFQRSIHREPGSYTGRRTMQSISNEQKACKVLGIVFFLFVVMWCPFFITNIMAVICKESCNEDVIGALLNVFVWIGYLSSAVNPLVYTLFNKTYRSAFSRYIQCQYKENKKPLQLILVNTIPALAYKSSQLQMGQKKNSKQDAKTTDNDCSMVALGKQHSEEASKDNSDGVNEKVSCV

[6] = Genotoxicity in Salmonella typhimurium TA100 in presence of rat liver S9 fraction by Ames test; type: toxicity, subcellular; conditions: salmonella enterica subsp. enterica serovar typhimurium
[7] = Aqueous solubility of compound at pH 7.4; type: physicochemical
[8] = Metabolic stability in Sprague-Dawley rat liver microsomes assessed as intrinsic clearance at 100 uM preincubated for 10 mins followed by NADPH addition by LC/MS analysis; type: ADME, Microsome; conditions: read-out: CLH
[9] = Toxicity in Sprague-Dawley rat assessed as apparent adverse effect at 20 to 60 mg/kg, po administered daily via gavage measured for 7 days; type: organism-based; conditions: in vivo, 168 h, dose 20-60 mg/kg, time 7 day
[10] = Metabolic stability in dog liver microsomes assessed as compound remaining at 100 uM […] followed by NADPH addition by LC/MS analysis; type: ADME, Canis lupus familiaris, Microsome; conditions: read-out: Stability
[11] = Lipophilicity, logD of the compound at pH 7.4; type: physicochemical; conditions: buffer
[12] = Genotoxicity in Salmonella typhimurium TA1535 in presence of rat liver S9 fraction by Ames test; type: toxicity, subcellular; conditions: salmonella enterica subsp. enterica serovar typhimurium
[13] = Genotoxicity in Salmonella typhimurium TA97 in presence of rat liver S9 fraction by Ames test; type: toxicity, subcellular; conditions: salmonella enterica subsp. enterica serovar typhimurium
[14] = Genotoxicity in Salmonella typhimurium TA102 in absence of rat liver S9 fraction by Ames test; type: toxicity; conditions: salmonella enterica subsp. enterica serovar typhimurium
[15] = Metabolic stability in human liver microsomes assessed as intrinsic clearance at 100 uM preincubated for 10 mins followed by NADPH addition by LC/MS analysis; type: ADME, Microsome; conditions: read-out: CLH
[16] = Genotoxicity in Salmonella typhimurium TA98 in presence of rat liver S9 fraction by Ames test; type: toxicity, subcellular; conditions: salmonella enterica subsp. enterica serovar typhimurium
[17] = Drug distribution in Sprague-Dawley rat brain at 6 micromol/kg administered via gavage measured after 2 hrs by LC-MS/MS analysis; type: ADME, tissue-based; conditions: in vivo, po, dose 6 µmol/kg
[18] = Metabolic stability in Sprague-Dawley rat liver microsomes assessed as compound remaining at 100 uM […] followed by NADPH addition by LC/MS analysis; type: ADME, Microsome; conditions: read-out: Stability
[19] = Genotoxicity in Salmonella typhimurium TA100 in absence of rat liver S9 fraction by Ames test; type: toxicity; conditions: salmonella enterica subsp. enterica serovar typhimurium
[20] = Drug distribution in Sprague-Dawley rat brain at 6 micromol/kg administered via gavage measured after 6 hrs by LC-MS/MS analysis; type: ADME, tissue-based; conditions: in vivo, po, dose 6 µmol/kg
[21] = target: Cytochrome P450 2C9 (Homo sapiens, UniProt P11712); assay: Inhibition of CYP2C9 (unknown origin); type: ADME
Cytochrome P450 2C9, sequence (P11712 whole entry): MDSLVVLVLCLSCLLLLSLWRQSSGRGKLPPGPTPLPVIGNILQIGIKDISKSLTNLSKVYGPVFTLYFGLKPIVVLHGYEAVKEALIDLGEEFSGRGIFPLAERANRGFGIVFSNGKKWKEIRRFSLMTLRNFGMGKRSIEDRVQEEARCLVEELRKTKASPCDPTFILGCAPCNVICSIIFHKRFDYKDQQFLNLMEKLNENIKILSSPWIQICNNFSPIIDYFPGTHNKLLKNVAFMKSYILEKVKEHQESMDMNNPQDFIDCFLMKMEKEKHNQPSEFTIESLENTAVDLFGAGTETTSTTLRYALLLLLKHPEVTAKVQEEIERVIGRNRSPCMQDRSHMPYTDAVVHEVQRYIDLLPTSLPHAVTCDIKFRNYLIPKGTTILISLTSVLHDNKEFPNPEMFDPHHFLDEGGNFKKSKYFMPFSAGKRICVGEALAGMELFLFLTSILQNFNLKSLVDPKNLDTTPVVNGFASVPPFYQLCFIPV

[22] = target: T3, 5-hydroxytryptamine receptor 2C (Homo sapiens, UniProt P28335); assay: Displacement of [3H]- Mesulergine from human 5-HT2C receptor at 300 nM incubated for 1 hr by microbeta2 beta-counter analysis
T3 sequence (P28335 whole entry): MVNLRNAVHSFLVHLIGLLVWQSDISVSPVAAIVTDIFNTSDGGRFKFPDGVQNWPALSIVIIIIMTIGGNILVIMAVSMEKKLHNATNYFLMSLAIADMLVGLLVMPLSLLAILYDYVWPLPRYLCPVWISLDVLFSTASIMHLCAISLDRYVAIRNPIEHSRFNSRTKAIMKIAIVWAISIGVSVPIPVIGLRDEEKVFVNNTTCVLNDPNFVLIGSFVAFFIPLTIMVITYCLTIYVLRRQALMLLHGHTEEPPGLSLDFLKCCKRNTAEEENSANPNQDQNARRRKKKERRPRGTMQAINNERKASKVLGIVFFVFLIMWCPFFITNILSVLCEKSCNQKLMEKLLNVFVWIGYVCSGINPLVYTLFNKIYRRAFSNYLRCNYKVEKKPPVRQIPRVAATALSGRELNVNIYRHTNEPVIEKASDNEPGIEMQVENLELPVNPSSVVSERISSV

[23] = target: Cytochrome P450 2D6 (Homo sapiens, UniProt P10635); assay: Inhibition of CYP2D6 (unknown origin); type: ADME
Cytochrome P450 2D6, sequence (P10635 whole entry): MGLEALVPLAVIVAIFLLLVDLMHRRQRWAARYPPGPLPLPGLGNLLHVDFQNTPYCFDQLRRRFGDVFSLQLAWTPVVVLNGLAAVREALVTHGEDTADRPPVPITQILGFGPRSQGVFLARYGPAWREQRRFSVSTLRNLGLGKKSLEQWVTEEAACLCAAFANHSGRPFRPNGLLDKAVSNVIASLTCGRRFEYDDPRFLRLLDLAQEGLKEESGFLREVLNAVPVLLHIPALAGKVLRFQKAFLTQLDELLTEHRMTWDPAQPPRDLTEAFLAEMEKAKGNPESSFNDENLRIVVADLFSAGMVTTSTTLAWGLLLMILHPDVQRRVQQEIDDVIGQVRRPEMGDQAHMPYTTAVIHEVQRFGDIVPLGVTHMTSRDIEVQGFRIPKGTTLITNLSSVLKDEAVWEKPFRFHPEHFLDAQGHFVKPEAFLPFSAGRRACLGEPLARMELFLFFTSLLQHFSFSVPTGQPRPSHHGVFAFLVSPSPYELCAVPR

[24] = Plasma protein binding in human at 10 uM; type: ADME, cell-free; conditions: read-out: PPB (converted)
[25] = target: Cytochrome P450 2C19 (Homo sapiens, UniProt P33261); assay: Inhibition of CYP2C19 (unknown origin); type: ADME
Cytochrome P450 2C19, sequence (P33261 whole entry): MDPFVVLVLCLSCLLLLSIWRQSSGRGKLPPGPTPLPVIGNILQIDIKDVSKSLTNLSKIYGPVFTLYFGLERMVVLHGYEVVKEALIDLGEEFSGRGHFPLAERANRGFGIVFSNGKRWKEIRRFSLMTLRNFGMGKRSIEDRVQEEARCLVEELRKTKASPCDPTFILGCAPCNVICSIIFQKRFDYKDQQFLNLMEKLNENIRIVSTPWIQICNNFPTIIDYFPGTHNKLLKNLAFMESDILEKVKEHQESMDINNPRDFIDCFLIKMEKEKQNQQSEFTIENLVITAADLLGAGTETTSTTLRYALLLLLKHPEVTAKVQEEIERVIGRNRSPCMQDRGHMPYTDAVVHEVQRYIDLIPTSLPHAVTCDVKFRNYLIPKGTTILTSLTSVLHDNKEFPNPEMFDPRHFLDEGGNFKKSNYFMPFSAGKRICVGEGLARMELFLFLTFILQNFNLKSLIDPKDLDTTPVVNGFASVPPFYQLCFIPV

[26] = target: 5-hydroxytryptamine receptor 2B (Homo sapiens, UniProt P41595); assay: Displacement of [3H]-LSD from human 5-HT2B receptor at 25 uM incubated for 1 hr by microbeta2 beta-counter analysis
5-hydroxytryptamine receptor 2B, sequence (P41595 whole entry): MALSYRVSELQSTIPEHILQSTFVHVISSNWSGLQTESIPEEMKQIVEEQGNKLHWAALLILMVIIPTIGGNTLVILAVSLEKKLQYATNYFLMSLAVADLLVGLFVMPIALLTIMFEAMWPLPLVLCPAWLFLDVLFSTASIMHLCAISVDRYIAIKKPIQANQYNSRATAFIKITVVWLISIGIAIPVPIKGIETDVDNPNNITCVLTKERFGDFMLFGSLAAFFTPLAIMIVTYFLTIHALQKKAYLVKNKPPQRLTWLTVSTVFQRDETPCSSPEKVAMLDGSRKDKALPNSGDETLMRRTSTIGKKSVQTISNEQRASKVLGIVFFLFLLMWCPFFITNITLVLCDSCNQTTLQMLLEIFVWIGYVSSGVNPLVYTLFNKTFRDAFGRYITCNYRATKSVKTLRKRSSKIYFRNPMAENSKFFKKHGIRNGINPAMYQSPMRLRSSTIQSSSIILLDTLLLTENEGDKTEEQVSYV

[27] = Drug distribution in Sprague-Dawley rat brain at 6 micromol/kg administered via gavage measured after 0.5 hr by LC-MS/MS analysis; type: ADME, tissue-based; conditions: in vivo, po, dose 6 µmol/kg
[28] = target: T2, 5-hydroxytryptamine receptor 2A; assay: Displacement of [3H]-Ketanserin from human 5-HT2A receptor at 50 nM incubated for 1 hr by microbeta scintillation counter analysis
[29] = Toxicity in Sprague-Dawley rat assessed as animal death at 20 to 60 mg/kg, po administered daily via gavage measured for 7 days; type: organism-based; conditions: in vivo, 168 h, dose 20-60 mg/kg, time 7 day
[30] = Metabolic stability in human liver microsomes assessed as half life at 100 uM preincubated for 10 mins followed by NADPH addition by LC/MS analysis; type: ADME, Microsome
[31] = target: Cytochrome P450 3A4 (Homo sapiens, UniProt P08684); assay: Inhibition of CYP3A4 (unknown origin); type: ADME
Cytochrome P450 3A4, sequence (P08684 whole entry): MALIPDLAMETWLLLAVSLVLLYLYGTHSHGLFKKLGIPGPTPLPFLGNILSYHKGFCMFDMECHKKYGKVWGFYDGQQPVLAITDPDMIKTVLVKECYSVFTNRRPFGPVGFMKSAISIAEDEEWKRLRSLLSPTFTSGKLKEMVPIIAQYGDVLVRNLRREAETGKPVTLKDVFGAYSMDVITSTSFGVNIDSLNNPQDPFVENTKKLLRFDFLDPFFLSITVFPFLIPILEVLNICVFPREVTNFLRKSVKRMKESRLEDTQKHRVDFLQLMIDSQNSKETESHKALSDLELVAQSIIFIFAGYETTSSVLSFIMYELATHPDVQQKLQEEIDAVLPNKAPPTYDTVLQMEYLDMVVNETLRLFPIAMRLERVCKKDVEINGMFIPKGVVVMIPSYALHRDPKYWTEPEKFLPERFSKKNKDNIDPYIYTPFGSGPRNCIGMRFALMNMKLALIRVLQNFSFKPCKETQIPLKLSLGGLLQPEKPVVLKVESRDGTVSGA

[32] = Genotoxicity in Salmonella typhimurium TA97 in absence of rat liver S9 fraction by Ames test; type: toxicity; conditions: salmonella enterica subsp. enterica serovar typhimurium
[33] = Genotoxicity in Salmonella typhimurium TA1535 in absence of rat liver S9 fraction by Ames test; type: toxicity; conditions: salmonella enterica subsp. enterica serovar typhimurium
[34] = Plasma protein binding in monkey at 10 uM; type: ADME, cell-free, Macaca mulatta; conditions: rhesus monkey, read-out: PPB (converted)
[35] = Metabolic stability in Sprague-Dawley rat liver microsomes assessed as half life at 100 uM preincubated for 10 mins followed by NADPH addition by LC/MS analysis; type: ADME, Microsome
[36] = Plasma protein binding in rat at 10 uM; type: ADME, cell-free; conditions: read-out: PPB (converted)
[37] = Metabolic stability in human liver microsomes assessed as compound remaining at 100 uM […] followed by NADPH addition by LC/MS analysis; type: ADME, Microsome; conditions: read-out: Stability
[38] = target: Voltage-gated inwardly rectifying potassium channel KCNH2 (Homo sapiens, UniProt Q12809); assay: Inhibition of hERG potassium channel expressed in CHO cells at -80 mV holding potential by whole cell patch clamp assay; type: toxicity, cell-based
Voltage-gated inwardly rectifying potassium channel KCNH2, sequence (Q12809 whole entry): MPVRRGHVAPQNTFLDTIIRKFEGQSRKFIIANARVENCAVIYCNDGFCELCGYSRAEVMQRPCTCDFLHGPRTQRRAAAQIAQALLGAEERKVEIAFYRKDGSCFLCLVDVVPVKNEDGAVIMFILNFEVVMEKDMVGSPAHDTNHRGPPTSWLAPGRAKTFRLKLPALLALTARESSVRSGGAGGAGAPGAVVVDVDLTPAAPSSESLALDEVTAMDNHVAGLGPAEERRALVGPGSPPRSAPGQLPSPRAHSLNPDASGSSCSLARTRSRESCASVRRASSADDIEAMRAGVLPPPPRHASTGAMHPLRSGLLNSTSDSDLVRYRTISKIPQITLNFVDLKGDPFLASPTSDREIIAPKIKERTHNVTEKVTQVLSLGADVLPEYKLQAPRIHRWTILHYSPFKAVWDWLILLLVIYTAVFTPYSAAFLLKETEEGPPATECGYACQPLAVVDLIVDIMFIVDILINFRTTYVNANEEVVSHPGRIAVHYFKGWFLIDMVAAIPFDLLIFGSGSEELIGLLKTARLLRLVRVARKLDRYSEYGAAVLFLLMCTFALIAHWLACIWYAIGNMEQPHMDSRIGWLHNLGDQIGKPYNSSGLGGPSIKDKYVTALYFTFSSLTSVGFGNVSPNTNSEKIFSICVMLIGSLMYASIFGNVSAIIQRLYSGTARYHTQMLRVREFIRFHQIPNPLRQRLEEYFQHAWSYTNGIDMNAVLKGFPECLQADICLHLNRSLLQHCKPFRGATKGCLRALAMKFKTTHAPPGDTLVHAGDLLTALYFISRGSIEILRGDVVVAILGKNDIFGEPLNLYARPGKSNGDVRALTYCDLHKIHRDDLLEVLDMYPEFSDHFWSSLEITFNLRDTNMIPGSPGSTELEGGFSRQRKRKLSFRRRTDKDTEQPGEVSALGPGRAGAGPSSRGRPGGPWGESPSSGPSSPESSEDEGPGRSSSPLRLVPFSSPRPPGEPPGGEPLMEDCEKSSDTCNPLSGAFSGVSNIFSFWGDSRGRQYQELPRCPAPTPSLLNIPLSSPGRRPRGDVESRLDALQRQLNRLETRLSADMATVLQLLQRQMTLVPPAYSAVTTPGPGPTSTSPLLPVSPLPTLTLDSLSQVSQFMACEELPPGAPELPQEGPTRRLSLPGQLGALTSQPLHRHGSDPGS

[39] = MRTlast in Sprague-Dawley rat at 4 mg/kg, IG administered as single dose measured upto 24 hrs by LC-MS/MS analysis; type: ADME, organism-based; conditions: in vivo, po
[40] = Half life in Sprague-Dawley rat at 2 mg/kg, IG administered as single dose measured upto 24 hrs by LC-MS/MS analysis; type: ADME, organism-based; conditions: in vivo, po
[41] = Tmax in Sprague-Dawley rat at 4 mg/kg, IG administered as single dose measured upto 24 hrs by LC-MS/MS analysis; type: ADME, organism-based; conditions: in vivo, po
[42] = MRTlast in Sprague-Dawley rat at 2 mg/kg, IG administered as single dose measured upto 24 hrs by LC-MS/MS analysis; type: ADME, organism-based; conditions: in vivo, po
[43] = Cmax in Sprague-Dawley rat at 2 mg/kg, IG administered as single dose measured upto 24 hrs by LC-MS/MS analysis; type: ADME, organism-based; set-up: dose 2 mg/kg, time < 24 hrs, route ig; conditions: in vivo, po
[44] = AUClast in Sprague-Dawley rat at 4 mg/kg, IG administered as single dose measured upto 24 hrs by LC-MS/MS analysis; type: ADME, organism-based; set-up: dose 4 mg/kg, time < 24 hrs, route ig; conditions: in vivo, po
[45] = Cmax in Sprague-Dawley rat at 4 mg/kg, IG administered as single dose measured upto 24 hrs by LC-MS/MS analysis; type: ADME, organism-based; set-up: dose 4 mg/kg, time < 24 hrs, route ig; conditions: in vivo, po
[46] = AUClast in Sprague-Dawley rat at 2 mg/kg, IG administered as single dose measured upto 24 hrs by LC-MS/MS analysis; type: ADME, organism-based; set-up: dose 2 mg/kg, time < 24 hrs, route ig; conditions: in vivo, po
[47] = Tmax in Sprague-Dawley rat at 2 mg/kg, IG administered as single dose measured upto 24 hrs by LC-MS/MS analysis; type: ADME, organism-based; conditions: in vivo, po
[48] = Half life in Sprague-Dawley rat at 4 mg/kg, IG administered as single dose measured upto 24 hrs by LC-MS/MS analysis; type: ADME, organism-based; conditions: in vivo, po

## CN1CCC(N(Cc2ccc(F)cn2)C(=O)NCc2ccc(OCC(F)(F)F)cc2)CC1
[1]
  pKa: 8.51
[2]
  IC50: 8500 nM
[3]
  Activity: Non-Toxic
[4]
  Activity: Non-Toxic
[5]
  IC50: 2.1 nM
[6]
  Activity: Non-Toxic
[7]
  solubility: 710 µg/mL (≈ 1560 µM)
[8]
  CLint scaled at 100 µM: 34.1 mL/min/kg
[9]
  Activity: Non-Toxic
[10]
  remaining at 100 µM: 76.4%
[11]
  logD: 1.97
[12]
  Activity: Non-Toxic
[13]
  Activity: Non-Toxic
[14]
  Activity: Non-Toxic
[15]
  CLint scaled at 100 µM: < 6.7 mL/min/kg
[16]
  Activity: Non-Toxic
[17]
  Ct: 164 nmol/kg
[18]
  remaining at 100 µM: 66.5%
[19]
  Activity: Non-Toxic
[20]
  Ct: 100 nmol/kg
[21]
  IC50: > 100000 nM
[22]
  Ki: 2 nM
[23]
  IC50: > 100000 nM
[24]
  fraction unbound at 10 µM: 0.309
[25]
  IC50: 62900 nM
[26]
  Ki: 139 nM
[27]
  Ct: 120 nmol/kg
[28]
  Ki: 0.2 nM
[29]
  Activity: Non-Toxic
[30]
  half-life at 100 µM: > 3.1 h
[31]
  IC50: > 100000 nM
[32]
  Activity: Non-Toxic
[33]
  Activity: Non-Toxic
[34]
  fraction unbound at 10 µM: 0.383
[35]
  half-life at 100 µM: 1.72 h
[36]
  fraction unbound at 10 µM: 0.418
[37]
  remaining at 100 µM: 89.2%
[38]
  IC50: 1100 nM

## CN1CCC(N(Cc2ccc(F)cn2)C(=O)NCc2ccc(OCC(F)(F)F)cc2)CC1.O=C(O)C(O)C(O)C(=O)O
[39]
  MRT last at 24 h: 6.03 h
[40]
  half-life: 4.72 h
[41]
  Tmax: 0.81 h
[42]
  MRT last at 24 h: 6.3 h
[43]
  Cmax: 87.7 nM
[44]
  AUC(0-t) at 24 h: 1.22 µM·h
[45]
  Cmax: 174 nM
[46]
  AUC(0-t) at 24 h: 0.683 µM·h
[47]
  Tmax: 0.9 h
[48]
  half-life: 4.44 h
